The source made the active and inactive calls.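 The calls were made as follows: active = fitted curve reaching 40% activation at or below the top valid dose tested; inconclusive = flat curve at 30 to 70% activation, or poor fit; inactive = the rest.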
The molecules below were run on SK-MEL-5 TRPM1 promoter luciferase reporter, 24 h (assay: MITF activators via TRPM1 promoter reporter, dose response, SK-MEL-5 cells, luciferase, cherry-pick samples (AID 540258);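 also: potency for activators that raise TRPM1 promoter luciferase signal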).

Row | Compound | AC40
1 | Cc1ccc(NC(=O)c2sc3nc(C)cc(C)c3c2N)cc1 | 0.205 µM
2 | O=C(NC1CCCC1)c1cc(-c2ccc(Cl)cc2Cl)on1 | 0.393 µM
3 | Cn1c2ccccc2c(=O)c2ccc(-c3ccc4c(c3)OCO4)cc21 | 0.851 µM
4 | c1ccc(SCc2nc(-c3ccccn3)no2)cc1 | 3.01 µM
5 | CCN(N=O)c1ccc(C=C2C=Cc3ccccc32)cc1 | 0.238 µM
6 | CC(C)(C)c1cc(NC(=O)Nc2ccccc2)no1 | 0.864 µM
7 | O=C(NCCC1=CCCCC1)NC12CC3CC(CC(C3)C1)C2 | 0.703 µM
8 | c1ccc(-c2noc(CCC3CCCC3)n2)cc1 | 4.35 µM
9 | C/C(=N/OCc1ccc(Br)cc1)c1ccccn1 | 0.336 µM
10 | O=S(=O)(c1cccs1)N1CCCc2cccc(O)c21 | 7.11 µM
11 | CCCCN1C(=O)/C(=C2\SC(N3CCCCC3)=NC2=O)c2ccccc21 | 3.23 µM
12 | C/C(=C\C(=O)c1cccnc1)Nc1ccc(C)c(C)c1 | 6.87 µM
13 | COc1ccc(C(=O)c2ccc(CC#N)s2)cc1 | 7.07 µM
14 | CCc1ccc(NC(=O)c2ccc3nc(N)sc3c2)cc1 | 5.39 µM
15 | O=C1OC(c2ccccc2)=C/C1=C/N1CCCCC1 | 2.12 µM
16 | Cc1noc(N)c1C(=O)Nc1ccc(C(C)(C)C)cc1 | 1.66 µM
17 | COC(=O)c1c(-c2ccc(S(C)(=O)=O)cc2)sc2ccc(OC)cc12 | 2.76 µM
18 | Cc1cc(Cl)ccc1OCc1cn2cccnc2n1 | 1.41 µM
19 | COc1cccc2cc(CC(=O)c3ccc(C)cc3C)c(=O)oc12 | 11.9 µM
20 | O=C(CCCc1ccccc1)c1ccccc1 | 0.326 µM
21 | Cn1cc(Br)c(C(=O)Nc2sc3c(c2C(N)=O)CCCC3)n1 | 10.4 µM
22 | Cc1ccc(-n2nc3ccc(NC(=O)C(C)C)cc3n2)cc1 | 0.555 µM
23 | CC(=O)c1cccc(OCc2cc(C(=O)N(C)Cc3cnccn3)no2)c1 | 9.27 µM

Row | Compound | AC40
24 | CCCC(=O)N/C(N)=N/c1nc2ccccc2o1 | 0.558 µM
25 | COc1ccc2oc(=O)c(C(=O)N3CCN(c4ccccc4C)CC3)cc2c1 | 8.14 µM
26 | CC(C)(C)C(=O)OCc1nc(-c2ccc(F)cc2)cs1 | 11.3 µM
27 | O=C(N=C1N=C2C=CC=CN2Cc2ccccc21)c1ccc(S(=O)(=O)N2CCCC2)cc1 | 30.1 µM
28 | O=C(O)c1ccc(-c2nc(-c3ccc(Cl)cc3)cs2)cc1 | 0.309 µM
29 | Cc1ccc(S(=O)(=O)Nc2cccc(-c3ccc(N4CCCCCC4)nn3)c2)cc1 | 4.9 µM
30 | Cc1ccc2c(CN3CCC(C)CC3)cc(=O)oc2c1C | 8.33 µM
31 | Nc1nc(COc2ccc3ccccc3c2)cs1 | 4.97 µM
32 | COc1ccc(NC(=O)CCCn2c(=O)oc3ccccc32)cc1Cl | 3.94 µM
33 | CN1CCN(/N=C/c2ccc(Br)cc2)CC1 | 6 µM
34 | C(=N\Nc1nc2ccccc2[nH]1)/c1c[nH]c2ccccc12 | 5.09 µM
35 | COc1ccc(C(=O)NN/C(=N/S(=O)(=O)c2ccc(C)cc2)c2ccccc2)cc1 | 1.48 µM
36 | CCCC(=O)Nc1ccc(C#Cc2ccccc2)cc1 | 1.63 µM
37 | COc1ccc(-c2nn(-c3ccccc3)cc2C#N)cc1 | 3.24 µM
38 | Fc1ccccc1CSc1nnc(-c2ccccc2)o1 | 0.935 µM
39 | COc1ccc2c(c1)oc(=O)c1cc(OC)ccc12 | 3.88 µM
40 | NC(=O)c1ccc(-c2noc(-c3cccc(Cl)c3)n2)cc1 | 3.8 µM
41 | CC(C)Nc1oc(-c2cccc3ccccc23)nc1C#N | 9.14 µM
42 | COc1ccc(Oc2ncnc3sccc23)cc1 | 6.05 µM
43 | Fc1ccccc1COc1ccc(C(=S)N2CCCC2)cc1 | 4.34 µM
44 | c1cncc(-c2nc3ccccc3s2)c1 | 3.8 µM
45 | O=C1C(=O)N(c2ccccc2)P(=O)(N(CCCl)CCCl)N1c1ccccc1 | 16.1 µM
46 | O=C(c1cnn2ccccc12)N1CCc2ccccc21 | 1.28 µM

Row | Compound | AC40
47 | Clc1ccc(-n2nnc(-c3ncc[nH]3)n2)cc1Cl | 7.37 µM
48 | Oc1oc(-c2ccccc2)nc1C=NCc1ccccc1 | 11.3 µM
49 | O=C(Nc1ccccc1O)c1cc2cc(Br)ccc2oc1=O | 2.18 µM
50 | Cc1nnc(NC(=O)c2ccc(N3CCCC3=O)cc2)s1 | > 35 µM (inactive)
51 | O=C(N/N=C/c1ccccc1C(F)(F)F)c1ccc(O)cc1 | 3.44 µM
52 | Clc1ccc(C#Cc2cccnc2)cc1 | 5.78 µM
53 | COc1cc(/C=N/O)ccc1OCc1ccccc1Cl | 0.744 µM
54 | CCCc1ccc(OCc2nc(-c3ccc(NC(=O)c4cccs4)cc3)no2)cc1 | 14.2 µM
55 | COc1cccc(NC(=O)c2csc3c2CCCC3)c1 | 4.8 µM
56 | COc1ccc(/C=C/c2nc3ccccc3n2Cc2ccc(OC)c(OC)c2)cc1 | 1.93 µM
57 | COC(=O)c1cn(CC(=O)NCc2cccs2)c2ccccc12 | 9.32 µM
58 | Brc1csc(/C=N/Nc2nc3ccccc3s2)c1 | 0.667 µM
59 | C=CCC1(CC=C)CCCN1C(=O)C1CCC(=O)N(CCc2ccccc2)C1 (configuration not stated) | 7.52 µM
60 | COc1ccccc1C(=O)NCCC(=O)NC1CCC(C)CC1 (configuration not stated) | 3.62 µM
61 | C=CCn1cccc(C(=O)Nc2ccc(Cl)cc2)c1=O | > 11 µM (inactive)
62 | c1ccc(Nc2ccc(Nc3ccccc3)cc2)cc1 | 23.7 µM
63 | Cc1ccc(C(=O)O/N=C(\N)c2ccc(Br)cc2)cc1 | 7.84 µM
64 | N/C(=N\OC(=O)c1ccc2c(c1)OCO2)c1ccc(Cl)cc1 | 5.31 µM
65 | N/C(=N\OC(=O)C1CCCCC1)c1cccc(Br)c1 | 13.5 µM
66 | Cc1ccc(Nc2nc(Cl)nc(NC(C)(C)C)n2)cc1 | 3.69 µM
67 | O=C(Nc1ccccc1)Nc1ccc2nnsc2c1 | 13.1 µM

Reference: PubChem BioAssay AID540258 (Broad Institute, 2011)
